Assay results: PubChem BioAssay AID1963841 (Molecular Pharmacology Branch, DTP, NCI, 2024)
pIC50: −log10 of the molar value.

Tested on: 439559-082-T-J2-PDC spheroid viability
Assay: Anticancer human tumor 439559-082-T-J2-PDC patient-derived colon adenocarcinoma cell line growth inhibition [POLQ]
Conditions: spheroids with HUVEC and MSC; for pIC50: curve of first compound; for viability, T/C: stronger effect = lower value
In short: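 PDC + HUVEC + MSC complex spheroids; POLQ inhibitors ± partner drugs; top conc. at/near clinical Cmax, else 10 microM (SN-38 1 microM), half-log dilutions; 37 degrees C, 5% CO2.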
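Further: spheroids exposed to compounds for seven days before readout.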
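Wherever viability, T/C is given: 100% = DMSO vehicle control viability.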

COc1cc2cc(C(=O)CCC(=O)O)sc2cc1OC + COC1C(OC(N)=O)C(O)C(Oc2ccc3c(O)c(NC(=O)c4ccc(O)c(CC=C(C)C)c4)c(=O)oc3c2C)OC1(C)C
pIC50 (second compound 0.0316 µM): < 5.00
pIC50 (second compound 0.1 µM): < 5.00
pIC50 (second compound 0.316 µM): < 5.00
pIC50 (second compound 1 µM): < 5.00
pIC50 (second compound 3.16 µM): < 5.00
pIC50 (second compound 10 µM): < 5.00
viability, T/C (second compound 0.0316 µM, first compound 0.0316 µM): 94%
viability, T/C (second compound 0.0316 µM, first compound 0.1 µM): 96.2%
viability, T/C (second compound 0.0316 µM, first compound 0.316 µM): 90.1%
viability, T/C (second compound 0.0316 µM, first compound 1 µM): 92.3%
viability, T/C (second compound 0.0316 µM, first compound 3.16 µM): 100%
viability, T/C (second compound 0.0316 µM, first compound 10 µM): 95.2%
viability, T/C (second compound 0.1 µM, first compound 0.0316 µM): 94.1%
viability, T/C (second compound 0.1 µM, first compound 0.1 µM): 103%
viability, T/C (second compound 0.1 µM, first compound 0.316 µM): 103%
viability, T/C (second compound 0.1 µM, first compound 1 µM): 95.7%
viability, T/C (second compound 0.1 µM, first compound 3.16 µM): 111%
viability, T/C (second compound 0.1 µM, first compound 10 µM): 98.1%
viability, T/C (second compound 0.316 µM, first compound 0.0316 µM): 98.6%
viability, T/C (second compound 0.316 µM, first compound 0.1 µM): 99.1%
viability, T/C (second compound 0.316 µM, first compound 0.316 µM): 96.2%
viability, T/C (second compound 0.316 µM, first compound 1 µM): 97.8%
viability, T/C (second compound 0.316 µM, first compound 3.16 µM): 97.1%
viability, T/C (second compound 0.316 µM, first compound 10 µM): 93.2%
viability, T/C (second compound 1 µM, first compound 0.0316 µM): 98.1%
viability, T/C (second compound 1 µM, first compound 0.1 µM): 99.3%
viability, T/C (second compound 1 µM, first compound 0.316 µM): 98.8%
viability, T/C (second compound 1 µM, first compound 1 µM): 94.7%
viability, T/C (second compound 1 µM, first compound 3.16 µM): 96.1%
viability, T/C (second compound 1 µM, first compound 10 µM): 91.3%
viability, T/C (second compound 3.16 µM, first compound 0.0316 µM): 99.1%
viability, T/C (second compound 3.16 µM, first compound 0.1 µM): 99.5%
viability, T/C (second compound 3.16 µM, first compound 0.316 µM): 84.7%
viability, T/C (second compound 3.16 µM, first compound 1 µM): 95.6%
viability, T/C (second compound 3.16 µM, first compound 3.16 µM): 98%
viability, T/C (second compound 3.16 µM, first compound 10 µM): 89.5%
viability, T/C (second compound 10 µM, first compound 0.0316 µM): 99%
viability, T/C (second compound 10 µM, first compound 0.1 µM): 96.9%
viability, T/C (second compound 10 µM, first compound 0.316 µM): 97.9%
viability, T/C (second compound 10 µM, first compound 1 µM): 95.9%
viability, T/C (second compound 10 µM, first compound 3.16 µM): 111%
viability, T/C (second compound 10 µM, first compound 10 µM): 89.6%
